In patent US20110189149A1, “New Uses of Lactic Acid Bacteria and Bifidobacteria” (priority 2008, published 2011):

Experiment: Intraperitoneal insulin sensitivity test (IPIST)
Format: in vivo, mice
Settings: fasted 16 hours, 0.5 IU/kg intraperitoneal, after 30 minutes
Description: Nineteen weeks after the beginning of the study, 5 mice in each group (control diet and HFD) were weighed and subjected to an intraperitoneal insulin sensitivity test (IPIST, the protocol of which is detailed below) to check the insulin resistance of the mice. At week 20, glycaemia tests, the protocol of which is detailed below, were performed. Just after the end of these tests, mice received daily 10^9 CFU of Lactobacillus acidophilus NCFM/mouse/day by oral gavage, for 3 weeks. At week 23, animals were sacrificed after weighing and after determination of glycaemia.
Mice were fasted for 16 hours and received an intraperitoneal injection of human recombinant insulin (0.5 International Units/kg body weight); Actrapid®, Novo-Nordisk, Bagsvaerd, Denmark). Blood glucose was assayed immediately before and at 15, 30, 45, and 60 minutes after injection using a digital glucometer (Medisense Optium, Abbott, Rungis, France).

In the case of “insulin: human recombinant insulin (Actrapid, Novo-Nordisk) injected intraperitoneally in the IPIST test”, the “decrease of glycaemia after insulin injection” value (control diet group) is reported as “around 70%” and the “decrease of glycaemia after insulin injection” value (high-fat diet group) is reported as “around 45%”.
